Measurements reported in PMC9107566, “Metabolic engineering of Escherichia coli for efficient degradation of 4-fluorophenol” (AMB Express, 2022).

Molecular target: T1, FpdA2 (Arthrobacter sp. IF1, UniProt D1MYT1)
T1 construct: co-expressed with flavin reductase FpdB, FpdC and FpdD; not purified
T1 sequence (D1MYT1 1-535): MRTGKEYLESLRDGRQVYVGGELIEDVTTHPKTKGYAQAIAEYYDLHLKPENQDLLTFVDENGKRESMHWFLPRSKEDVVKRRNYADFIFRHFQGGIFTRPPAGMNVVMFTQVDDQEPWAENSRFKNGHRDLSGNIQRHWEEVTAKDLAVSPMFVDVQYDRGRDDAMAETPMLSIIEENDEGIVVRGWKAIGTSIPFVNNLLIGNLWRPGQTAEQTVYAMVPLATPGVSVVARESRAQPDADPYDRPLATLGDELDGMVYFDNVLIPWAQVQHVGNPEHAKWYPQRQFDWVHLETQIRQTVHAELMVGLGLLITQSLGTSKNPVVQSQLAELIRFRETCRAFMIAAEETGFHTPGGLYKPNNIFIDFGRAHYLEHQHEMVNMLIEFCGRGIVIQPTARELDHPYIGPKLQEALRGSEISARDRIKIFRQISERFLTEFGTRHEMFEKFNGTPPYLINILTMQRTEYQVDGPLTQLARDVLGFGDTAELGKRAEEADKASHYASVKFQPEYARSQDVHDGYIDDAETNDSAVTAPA
Test: whole-cell degradation by BL-fpd, HPLC of substrate
Assay type: cell-based
Settings: 2 mM substrate, 10 uM FAD added, 37 C, 3 h; induced cells co-expressing FpdB, FpdC, FpdD; empty-vector strain BL-control as control

`Oc1ccc(Br)cc1` [4-bromophenol] was tested, and the “whole-cell degradation by BL-fpd, HPLC of substrate” value was “FpdA2 showed the highest activity towards 4-bromophenol among the substrates tested”.
